Measured values from article PMC3439875 (Nucleic Acids Research, 2012).

Molecular target: variola topoisomerase (Variola virus, UniProt P32989)
Assay type: biochemical

Chain of variola topoisomerase (P32989 whole entry, looked up): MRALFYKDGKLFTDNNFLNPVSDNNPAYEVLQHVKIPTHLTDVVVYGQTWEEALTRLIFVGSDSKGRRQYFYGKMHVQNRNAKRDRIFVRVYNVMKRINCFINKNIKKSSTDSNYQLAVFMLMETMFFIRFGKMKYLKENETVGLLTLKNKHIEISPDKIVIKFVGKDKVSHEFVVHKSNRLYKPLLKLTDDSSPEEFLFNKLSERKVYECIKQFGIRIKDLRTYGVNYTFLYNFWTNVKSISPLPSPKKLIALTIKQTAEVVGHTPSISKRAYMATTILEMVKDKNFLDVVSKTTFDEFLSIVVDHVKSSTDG

## CCOC(=O)c1c(O)c2cc(-c3cccc(OC)n3)cnc2n(O)c1=O [Compound 7]
  Inhibition of variola topoisomerase activity: no inhibitory activity
